The results in this text go back to patent publication US9480418B2, “Systems and methods for the screening and monitoring of inner ear function” (The United States Government as represented by the …, priority 2012, dated 2016).

The data set deals with hearing in the SRO frequencies. Nature of the data set: Validation study: SRO hearing monitoring with OtoID in subjects receiving cisplatin. The class given is in vivo, human. The following applies: 9 ears of 24 monitored; Validation sample. From the text:
Validation Study, Sample Subjects. […] Subjects were prescreened using the electronic medical records for exclusionary criteria and to obtain treatment information. The subjects enrolled in the Validation study were part of a larger project to develop and evaluate a portable hearing testing device capable of measuring extended high frequency hearing. Except for the following two study-related differences, the same exclusionary criteria were used to recruit both groups of subjects (those participating in the Developmental or Validation studies). First, there was no exclusion for extent of hearing threshold loss in the Validation study sample. Second, subjects from the Validation study were tested on the chemotherapy unit or at bedside in the case of inpatients. There was no overlap of subjects in these two samples.
Validation Study; Equipment and Measurements. […] This device, the OtoID, was evaluated in an independent study for its ability to optimize the sensitivity, efficiency, and cost-effectiveness of ototoxicity early identification practices. […]
Sennheiser HDA 200 earphones were used with the OtoID to reduce the detrimental effects of environmental noise. […] The seven frequencies constituting each subject's individualized behavioral SRO were evaluated at each treatment interval. […] Subjects were also evaluated immediately following cessation of treatment and at 1 mo post-cessation of treatment. […]

For the compound `N.N.[Cl][Pt][Cl]` [cisplatin], the “ears in which hearing loss occurred” value is on record as 38%.
